For data set [1], the target named is T1, T224A CYP3A4 (Homo sapiens, UniProt P08684, T224A).
T1 construct: made in house
Description: Equilibrium fluorescence titrations of fluorol with CYP3A4. The following applies: for Kd: read-out: Kd, fluorometric. The data set is classed as binding. An excerpt: (§1) Equilibrium fluorescence titrations were used as an alternative approach for Kd determination. One advantage of fluorol is a large Stokes shift (difference between the absorption and emission maxima; Figure S1B) and sensitivity to environment, as emission becomes more intense and blue-shifted when polarity of the medium decreases (Figure S1C). Moreover, spectral overlap between the emission band of fluorol and Q-bands of CYP3A4 enables fluorescence resonance energy transfer (FRET) to the heme. This process dominates during complex formation with CYP3A4, because emission is decreased rather than enhanced when fluorol transfers from an aqueous media to a more hydrophobic protein environment. One complication that we encountered during fluorescence measurements was a nonspecific decrease in emission, presumably due to adhesion of fluorol to plastic pipette tips. To overcome this problem, before each titration, small amounts of buffer were added to fluorol solution in 1–2 μL increments (8–10 additions; <2% of volume change) and mixed using the same low-retention pipette tip. When no further changes in fluorescence intensity were observed, the same tip was used for addition and mixing of CYP3A4 aliquots (Figure 4A). […] This means that the low-affinity site in T224A CYP3A4 is less solvated and/or lies closer to the heme.
(§2) As a result, in GS8-bound CYP3A4, fluorol might still be able to bind to the channel, albeit in a different orientation (Figure S2C). […] Thus, regardless of what ligand is bound, only the low-affinity site was available for fluorol in both WT and T224A CYP3A4.
(§3) Fluorescence measurements—Equilibrium fluorescence titrations were conducted on a Hitachi F-7000 fluorescence spectrophotometer at 23 °C in 50 mM phosphate buffer, pH 7.4, containing 0.6 mg/mL β-cyclodextrin. Fluorol solution (1 μM) was first titrated with small amounts of buffer using a low-retention plastic pipette tip until no further changes in fluorescence were detected (λex = 440 nm); then, the same tip was used for CYP3A4 additions (6 μM final concentration). […] CYP3A4-dependent changes in fluorescence intensity were plotted vs. CYP3A4 concentration, and Kd values were derived from nonlinear regression fittings.

The target in the next data set is T2, WT CYP3A4 (Homo sapiens, UniProt P08684).
T2 construct: made in house
T2 sequence (P08684 with tags, fused parts or gaps): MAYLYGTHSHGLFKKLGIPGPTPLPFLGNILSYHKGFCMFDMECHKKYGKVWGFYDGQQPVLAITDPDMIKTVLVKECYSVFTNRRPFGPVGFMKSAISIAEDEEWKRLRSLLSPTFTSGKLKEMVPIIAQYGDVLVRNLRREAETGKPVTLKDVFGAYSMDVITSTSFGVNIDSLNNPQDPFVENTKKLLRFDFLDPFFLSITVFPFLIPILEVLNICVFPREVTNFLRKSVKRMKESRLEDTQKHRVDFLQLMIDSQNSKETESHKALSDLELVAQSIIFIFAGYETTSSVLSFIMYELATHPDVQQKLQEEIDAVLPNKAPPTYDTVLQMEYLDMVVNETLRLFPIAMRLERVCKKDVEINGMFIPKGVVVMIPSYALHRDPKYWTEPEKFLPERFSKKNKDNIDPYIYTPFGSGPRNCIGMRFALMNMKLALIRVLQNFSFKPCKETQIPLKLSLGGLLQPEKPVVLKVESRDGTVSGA
The description is as above. The format is binding.
Source text: as §1, §2, §3

Data set [2] deals with T1, T224A CYP3A4. Description: Fluorol oxidation in a reconstituted system with cytochrome P450 reductase. The format is in vitro ADME. The following applies: 25 μM fluorol, 1 μM CYP3A4, 2 μM CPR, 37 °C; substrate/product ratio. The procedure:
This possibility was tested in a reconstituted system with cytochrome P450 reductase. […] The mass shift of +16 Da implies that fluorol undergoes a single-site oxidation.
Fluorol metabolism—Oxidation of fluorol by WT and T224A CYP3A4 was assessed in a reconstituted system with cytochrome P450 reductase. Reaction was carried out at 37 °C in 100 mM potassium phosphate, pH 7.4, containing catalase and superoxide dismutase (2 units/mL each), 1 μM WT or T224A CYP3A4, 2 μM CPR, NADPH regenerating system (10 mM glucose, 0.2 mM NADP^+, and 2 units/mL glucose-6-phosphate dehydrogenase), and 25 μM fluorol. After addition of 80 μM NADPH, samples were gently shaken, and 0.5 mL aliquots were taken in 15 min intervals. The reaction was stopped by adding 2 mL of dichloromethane. After 30 s vortexing, 1 mL of 0.3 M NaCl was added, and the sample was vortexed again and centrifuged for 10 min at 3000× g and 4 °C. The bottom organic phase (1 mL) was transferred to a glass vial, evaporated under the stream of nitrogen, and dissolved in 150 μL of methanol. Samples were analyzed by electrospray ionization mass spectroscopy using a Micromass LCP Premier mass spectrometer (Waters, Milford, MA, USA) in the negative ion mode, with 0.2 mL/min methanol flow. Chromatogram analysis and integrations were performed with Waters MassLynx MS software.

Details of data set [3]: method as in PMID 18831537. The following applies: cited from earlier work.
The next data set addresses CYP3A4 (Homo sapiens, UniProt P08684). Also noted: method as in PMID 22194603. The following applies: prior study, cited from earlier work; for Kd: up to 60 μM fluorol.

Like-named read-outs stand apart in the source and are kept apart here.

CYP3A4, sequence (P08684 whole entry): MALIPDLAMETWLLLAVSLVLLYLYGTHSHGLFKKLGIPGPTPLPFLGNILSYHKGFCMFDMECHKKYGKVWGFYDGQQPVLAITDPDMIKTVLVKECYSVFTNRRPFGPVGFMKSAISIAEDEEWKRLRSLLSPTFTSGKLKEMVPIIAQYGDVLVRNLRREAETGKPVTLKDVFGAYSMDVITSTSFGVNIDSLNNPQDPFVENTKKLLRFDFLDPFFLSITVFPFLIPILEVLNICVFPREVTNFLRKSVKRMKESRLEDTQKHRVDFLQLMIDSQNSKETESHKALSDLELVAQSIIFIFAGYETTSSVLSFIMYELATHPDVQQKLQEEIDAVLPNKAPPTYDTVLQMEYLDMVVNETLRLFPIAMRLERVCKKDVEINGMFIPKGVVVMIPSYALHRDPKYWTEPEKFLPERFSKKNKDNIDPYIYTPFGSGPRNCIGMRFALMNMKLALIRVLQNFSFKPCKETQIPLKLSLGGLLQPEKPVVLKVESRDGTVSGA
T1 sequence (P08684 with tags, fused parts or gaps T224A): as the sequence (P08684 with tags, fused parts or gaps) above, with T204A counted along it

Consider `CCCCNc1ccc2c3c(cccc13)C(=O)N(CCCC)C2=O` [fluorol, 2-butyl-6-(butylamino)-1H-benzo[de]isoquinoline-1,3(2H)-dione], for which the “Ligand-dependent decrease in emission change” value is listed as 7% on T224A CYP3A4 [1] (GS8-bound T224A CYP3A4) and 20% on T224A CYP3A4 [1] (ritonavir-bound T224A CYP3A4). Besides, the dissociation constant (Kd) (as a rule, the equilibrium constant for the complex coming apart) at T224A CYP3A4 [1] (T224A CYP3A4 in presence of 0.4 μM GS8, one-site model) was determined as 1600 ± 200 nM; at T224A CYP3A4 [1] (T224A CYP3A4 in presence of 0.4 μM RIT, one-site model) it was 3500 ± 300 nM; on T224A CYP3A4 [1] (T224A CYP3A4 in presence of 20 μM PRG, one-site model), 1800 ± 200 nM; at T224A CYP3A4 [1] (ligand-free T224A CYP3A4, only a low-affinity site detected), 2000 ± 300 nM; at WT CYP3A4 (WT CYP3A4 in presence of 0.4 μM GS8, one-site model, read-out: Kd, fluorometric) it was 2100 ± 300 nM; on WT CYP3A4 (WT CYP3A4 in presence of 0.4 μM RIT, one-site model, read-out: Kd, fluorometric), 4800 ± 600 nM. For the same compound, the Kd on WT CYP3A4 (WT CYP3A4 in presence of 20 μM PRG, one-site model, read-out: Kd, fluorometric) was 2400 ± 200 nM; on WT CYP3A4 (ligand-free WT CYP3A4, 1 μM fluorol, 23 °C, pH 7.4, read-out: Kd, fluorometric, high-affinity site) it was 150 ± 30 nM; on CYP3A4 (read-out: Kd, high-affinity site (peripheral area)) it was around 3 µM; at CYP3A4 (read-out: Kd, low-affinity area (catalytic cavity)), 10 µM. The “Ligand-dependent increase in emission change” value at T224A CYP3A4 [1] (T224A CYP3A4 in the presence of progesterone) stood at 20%. For the same compound, the “Fluorescence decay in T224A relative to WT” value at T224A CYP3A4 [1] (larger in T224A, equilibrium titration) is recorded as ~ 20%. The “Reduction of emission quenching” value on WT CYP3A4 (GS8-bound WT CYP3A4 vs ligand-free) turned out to be 10%; at WT CYP3A4 (ritonavir-bound WT CYP3A4 vs ligand-free), 30%. Besides, the Kd at 1 μM at WT CYP3A4 (human, ligand-free WT CYP3A4 protein in buffer, pH 7.4, ligand-free WT CYP3A4, read-out: Kd, fluorometric, low-affinity site) stood at 2400 ± 400 nM. In addition, at WT CYP3A4 (ligand-free WT CYP3A4), the “Percentage of the fluorescence change due to binding of fluorol to the high-affinity site” value is listed as 25%. Moreover, the “Efficiency of fluorol oxidation, mutant less efficient than WT” value on T224A CYP3A4 [2] is given as ~ 20%. Also, in data set [3], the Aqueous solubility result was “limited aqueous solubility”. Besides, the Hill coefficient (in general, the slope factor of the fitted curve) on CYP3A4 was 1.93.
